# Residues, ends and D or L forms follow the SMILES beside them. *: point of attachment. Boc = CC(C)(C)OC(=O)*; OBn = c1ccc(CO*)cc1; Bn = c1ccc(C*)cc1
row,SMILES,melting point [°C]
1,COc1ccc(C2C=C3CCN(C)CC3C(CO)C2CO)cc1 (stereo not drawn),169 to 171
2,CCCCCCCCCCCCSC(CCC)C(=O)Nc1cc(C)c(O)c(C)c1C (stereo not drawn),116
3,CCOC(=O)c1cc(-c2ccccc2)n(-c2cccc(C(N)=O)c2)c1C,238 to 239
4,O=C(O)c1c(Cl)nc(-c2ccccc2)c2ccccc12,208
5,Cc1c(NC(=O)C(CSC(=O)c2cccnc2)Cc2ccccc2)cccc1C(=O)O (stereo not drawn),80 to 86
6,CCC(=O)Cc1cc(OC2CCCC2)ccc1NC(=O)OC(C)(C)C,71 to 73
7,Cc1nc2ccc3c(c2o1)OC(CO)CO3 (stereo not drawn),120
8,Cc1c(OCc2ccc(F)cc2)cnn(C(C)(C)C)c1=O,65 to 66.5
9,NS(=O)(=O)c1cc(C(=O)O)cc(NCc2ccccc2)c1Oc1ccccc1,264 to 265
10,Cc1ccc([C@@H]2Sc3ccccc3NC(=O)[C@@H]2CN2CCN(C)CC2)cc1 (relative stereo),196
11,CCCCNC(=O)NS(=O)(=O)c1ccc(CCNC(=O)N2CCC(C)CC2=O)cc1 (stereo not drawn),159 to 161
12,CC(c1nnc2c(=O)[nH]c3cc(C(F)(F)F)c(Br)cc3n12)P(=O)(O)O (stereo not drawn),> 300
13,Nc1nc(N)c2cc(S(=O)(=O)c3ccc4ccccc4c3)ccc2n1,300 to 302
14,CC(C)=C1NC(=O)c2ccccc2S1,187 to 188
15,CCCN(CC1CC1)c1nc(C)nc2c1c(C)c(C)n2-c1c(C)cc(C)c2nsnc12,136
16,CN(CC1CCCCN1CC(=O)N1c2ccccc2NC(=O)c2ccccc21)C1CCCCC1 (stereo not drawn),146 to 148
17,COc1cc2c3c(cccc3c1)C(=O)c1c(O)cccc1-2,207 to 208
18,OC(CNCCNc1ccccc1Cl)COc1cccc2[nH]ncc12 (stereo not drawn),129 to 130
19,COC(=O)CN(Cc1ccccc1N)S(=O)(=O)c1ccc(OC)cc1,100 to 102
20,Fc1ccc(-c2cc3c(cc2Br)OCO3)cc1,86 to 87.5
21,Cc1ncnn1-c1cc(F)ccc1CNC(=O)c1nc2n(c(=O)c1O)CCN2C(C)C,212

row,SMILES,melting point [°C]
1,BrCc1noc2cc3ccccc3cc12,111 to 113
2,NCCNc1cccc2cn[nH]c12,166 to 168
3,NC1=NC(c2ccc(C(F)(F)F)cc2)Nc2cccc(F)c21 (stereo not drawn),220 to 222
4,O=C(Nc1ccc2ccc(Cl)cc2n1)c1ccccc1,133
5,CCOC(=O)C(C)Oc1ccc(-c2nc(-c3ccc(OC(C)C(=O)OCC)cc3O)nc(-c3c(C)cc(C)cc3C)n2)c(O)c1 (stereo not drawn),142 to 147
6,Cc1cc(-c2ccc(C(F)(F)F)nc2)nc(-c2cccc(-c3ccc(S(N)(=O)=O)s3)c2)n1,238
7,O=C1NC(=S)NC1Cc1c[nH]c2ccccc12 (stereo not drawn),206 to 210
8,O=P1(Oc2c(Cl)cc(Cl)cc2Cl)OCC2(CO1)COP(=O)(Oc1c(Cl)cc(Cl)cc1Cl)OC2 (stereo not drawn),283
9,Cn1c(=O)c2c(ncn2CCCOS(C)(=O)=O)n(C)c1=O,112 to 113
10,Nc1ccc2ccc(Oc3ccc(Cl)cc3)nc2n1,177
11,CC(NC(=O)Nc1ccc(Br)cn1)c1ncccc1F (stereo not drawn),151 to 154
12,Cc1cccc(SCn2cc(F)cnc2=O)c1,124
13,COc1cc2c(c(Cl)c1Cl)C(=O)C(c1ccc(Br)cc1)C2 (stereo not drawn),202 to 203
14,COc1ncc(OC)c(NC#N)n1,164 to 171
15,COc1cc2c(c(OC)c1OC)CCN(c1nc(N)c3cc(OC)c(OC)c(OC)c3n1)C2,193 to 195
16,COc1ccc(-c2ccc3c(c2)C(C)(C)OC(=O)N3)cc1F,210 to 211
17,Cc1cccc(Cn2cc(C(=O)C(=O)NC3=CC(=O)OC3)c3ccccc32)c1,298 to 300
18,CC(=O)OCCCCCCOc1ccc([N+](=O)[O-])c(C=O)c1,42 to 43
19,Cc1ccccc1N(CN1C(=O)CSC1=O)C(=O)CCl,133 to 136
20,CS(=O)(=O)c1ccc(-n2ncc(C#N)c2-c2ccc(-c3ccco3)cc2)cc1,229 to 230
21,CC(C)CC(NC(=O)C(Cc1ccc(OCc2ccccc2)cc1)NC(=O)OC(C)(C)C)C(=O)NCC(=O)OCc1ccccc1 (stereo not drawn) (Boc-Tyr(Bn)-Leu-Gly-OBn; configuration not given here),114 to 116

row,SMILES,melting point [°C]
1,CCNC1Cc2c[nH]c3ccc(OC)c(c23)C1(C)O (stereo not drawn),185 to 187
2,"O=C(Cc1ccc(Cl)c(Cl)c1)NC1N=C(C2CC2)c2ccccc2N(CC(F)(F)F)C1=O (single isomer, unassigned; (+))",193 to 194
3,O=C1CCC(N2Cc3c(OCc4ccc(CN5CCC(c6cccnc6)CC5)cc4)cccc3C2=O)C(=O)N1 (stereo not drawn),161 to 163
4,CCCCN(CCCC)c1ccc(C(C#N)=c2ccc(=C(C#N)C#N)cc2)c(OC)c1,215 to 238
5,Cn1c(C(F)(F)F)cc(=O)n(-c2ccc(Cl)c3nc(C(C)(C)C)oc23)c1=O,146 to 148
6,O=C(O)CCC(=O)c1ccc(CCNS(=O)(=O)c2ccc(Cl)cc2)cc1,152
7,Cc1oc(-c2ccc(F)cc2)cc1CO,80 to 82
8,COCC(=O)COc1c([N+](=O)[O-])ccc(F)c1F,39 to 42
9,COc1ccc([C@H](Sc2cc(Oc3ccccc3)ccc2N)[C@@H](O)C(=O)O)cc1,151 to 152
10,NC12CCCC(C1)C1CCC2C1 (stereo not drawn),111 to 113
11,COc1cc(COc2nn(CCO)cc2C=O)ccc1OCc1nc(-c2ccco2)oc1C,149 to 150
12,CC(C)NC(=O)NCCn1c(CO)nc2c(N)nc3ccccc3c21,> 240
13,COc1ccc(CCC(=O)CCC(Cc2ccc(OC)c(OC)c2)[N+](=O)[O-])cc1 (stereo not drawn),87 to 89
14,Cc1ccc(S(=O)(=O)OCC2COc3ccc(N)c(C=NO)c3O2)cc1 (stereo not drawn),164 to 166
15,CC(C)(C)OC(=O)Cn1c(=O)n(S(=O)(=O)c2ccc(Cl)cc2)c(=O)c2ccc(Cl)cc21,188 to 190
16,Cc1cc(C)n(-c2nnc3cc(Cl)ccc3n2)n1,174
17,O=C1[C@@H](O)[C@@H]2OCCC[C@@H]2N1Cc1ccccc1 (relative stereo),136 to 138
18,CC(C)(Cc1c(Sc2ccccc2)c2cc(F)ccc2n1Cc1ccc(Cl)cc1)C(=O)O,162 to 163
19,O=C(O)c1ccccc1Nc1cccc(Br)c1,169 to 171
20,Cc1cc2c(cc1-c1cc(-c3ccc(C(=O)O)cc3)ccc1-c1ccccc1)C(C)(C)CCC2(C)C,217
21,C=CCCc1ccc(C(N)=O)c(O)n1,195 to 198

# Second part, the molecule after the results:
row,melting point [°C],SMILES
1,83 to 84,CC(C)C(CO)CS(N)(=O)=O (stereo not drawn)
2,89,CON(C)C(=O)c1cc([N+](=O)[O-])c(F)cc1Cl
3,145 to 147,Cn1nc(Cl)c(C(=O)OC2COC2)c1S(N)(=O)=O
4,80 to 86,CCCCNc1nc(N(CCCC)C2CC(C)(C)N(OC3CCCCC3)C(C)(C)C2)nc(N(CCCC)C2CC(C)(C)N(OC3CCCCC3)C(C)(C)C2)n1
5,191 to 192,Cc1ccc(C(=O)N[C@@H]2COc3c(C)ccc(N4CCN(C)CC4)c3C2)cc1
6,156,Nc1cccc(-c2cccc(-c3nc(-c4ccc(C(F)(F)F)cc4)cc(C(F)(F)F)n3)c2)c1
7,88 to 90,CC1(C)Cc2ccc(F)cc2C=[N+]1[O-]
8,106,COc1ccc(-c2cc(Cl)cc3c2N(C)C(CN)CO3)c(C)c1 (stereo not drawn)
9,258 to 259,Nc1nc2ccccc2c2c1nc1n2CCOC1
10,132 to 134,CCc1nn2c(-c3ccccc3)ccnc2c1C#N
11,181 to 183,O=C(O)Cc1ccc2c3c(ccc2c1)OCC3
12,126,COc1cc(-c2nc3cc(F)ccc3s2)ccc1OC(=O)N1CCOCC1
13,283 to 285,Cc1noc(-c2nnc3c4ccccc4c(OCc4ncn(C)n4)nn23)n1
14,118 to 125,COc1ccc(C(=O)C(Cl)=NO)cc1
15,145 to 148,O=C(Nc1ccc(NCc2ccccc2)cc1)C(=O)N1CCC(Cc2ccc(F)cc2)CC1
16,142 to 143,COc1ccc2c(c1)C(CCNC(=O)c1ccc(Br)cc1)CC2 (stereo not drawn)
17,81,CNC(=O)C(=NOCF)c1ccccc1OC1CCCCO1 (stereo not drawn)
18,127,CN(C(=O)c1ccccc1N)c1ccccc1

row,melting point [°C],SMILES
1,143 to 144,O=C(Nc1nc(C(F)(F)C(F)(F)F)c(I)s1)c1cc(C(F)(F)F)cc(C(F)(F)F)c1
2,183 to 186,Cc1noc(NS(=O)(=O)c2sccc2-c2ccc3c(c2)OCO3)c1Br
3,176 to 177,O=C(c1cc2ccc(Br)cc2o1)c1cc2ccc(Br)cc2o1
4,271 to 273,O=C(O)c1c[nH]c2nc(Cl)ccc2c1=O
5,128 to 144,CCC(=O)NN=C(c1ccc(Cl)cc1)c1ccc(OS(C)(=O)=O)cc1
6,156 to 157,CC(C)(C)NCC(O)COc1ccc2oc(-c3ccc(OCc4ccccc4)c(OCc4ccccc4)c3)cc(=O)c2c1 (stereo not drawn)
7,63 to 65,C(=C(c1ccccc1)c1ccccc1)C1CCN(CCCCCCCCCCc2cccnc2)CC1
8,89.6,CC(=O)N1CCN2C(=O)N(c3cc(Cl)cc(Cl)c3)C(=O)C2(Cc2ccc(Br)cc2)C1 (stereo not drawn)
9,164 to 166,CC(=O)c1ccc2nc(-n3ccnc3)nc(NCCOCCO)c2c1
10,122 to 124,COC(=O)c1ccc([N+](=O)[O-])cc1S(=O)(=O)NC(C)(C)C
11,188,COc1nc(C)nc(NC(=O)NS(=O)(=O)c2cc([N+](=O)[O-])cs2)n1
12,221 to 222,O=C(NN=Cc1ccc(Cl)cc1)c1[nH]c2ccccc2c1Cc1ccccc1
13,195 to 197,CCOC(=O)c1ccc(CCc2coc(N)c2C#N)cc1
14,218 to 219,CCOC(=O)c1cccc2c3c([nH]c12)CN(CC(=O)NC(C(=O)C(F)(F)F)C(C)C)C=C3 (stereo not drawn)
15,164 to 166,CCCCOC(=O)Nc1nc2ccccc2c2c1nc(CC)n2CCCCNS(C)(=O)=O
16,95 to 97,Cc1cc(Oc2cc(F)ccc2[N+](=O)[O-])n[nH]1
17,177 to 179,Nc1nccc(N2CCc3ccccc32)n1
